# Assay results as given in ChEMBL document CHEMBL3352632 (Bioorg Med Chem, 2014).
# Calls of active or inactive are those of the source. The rule behind the calls is not given here.
# How the values were obtained:
# HepG2 [1] = experiment: Induction of apoptosis in human HepG2 cells assessed as early apoptotic cells level at 5 uM after 24 hrs by annexin V/propidium iodide double staining based flow cytometry; format: functional
# HepG2 [2] = experiment: Cell cycle arrest in human HepG2 cells assessed as accumulation at G2/M phase at 5 uM after 12 hrs by propidium iodide staining based flow cytometry (reference value: 25.2%); format: functional
# [3] = Selectivity for fluorescently-labeled c-KIT1 G-quadruplex DNA (unknown origin) over fluorescently-labeled h-TELO G-quadruplex DNA (unknown origin)
# HepG2 [4] = experiment: Cell cycle arrest in human HepG2 cells assessed as accumulation at G2/M phase at 10 uM after 12 hrs by propidium iodide staining based flow cytometry (reference value: […]); format: functional
# HepG2 [5] = experiment: Induction of apoptosis in human HepG2 cells assessed as necrotic cells level at 10 uM after 24 hrs by annexin V/propidium iodide double staining based flow cytometry; format: functional
# [6] = Binding affinity to fluorescently-labeled c-KIT1 G-quadruplex DNA (unknown origin) assessed as change in melting temperature at 2 uM in presence of 5 uM c-MYC G-quadruplex DNA by FRET assay
# HepG2 [7] = experiment: Cell cycle arrest in human HepG2 cells assessed as accumulation at subG0 phase at 10 uM after 12 hrs by propidium iodide staining based flow cytometry (reference value: 1.8%); format: functional
# HepG2 [8] = experiment: Induction of apoptosis in human HepG2 cells assessed as late apoptotic cells level at 2.5 uM after 24 hrs by annexin V/propidium iodide double staining based flow cytometry; format: functional
# [9] = Binding affinity to fluorescently-labeled c-KIT1 G-quadruplex DNA (unknown origin) assessed as change in melting temperature at 2 uM in presence of 5 uM c-KIT2 G-quadruplex DNA by FRET assay
# HepG2 [10] = experiment: Induction of apoptosis in human HepG2 cells assessed as late apoptotic cells level at 5 uM after 24 hrs by annexin V/propidium iodide double staining based flow cytometry; format: functional
# [11] = Binding affinity to fluorescently-labeled c-KIT2 G-quadruplex DNA (unknown origin) by thiazole-ornage dye based fluorescence intercalator displacement assay
# [12] = Binding affinity to fluorescently-labeled c-KIT1 G-quadruplex DNA (unknown origin) assessed as change in melting temperature at 2 uM in presence of 20 uM duplex DNA by FRET assay
# [13] = Selectivity for fluorescently-labeled c-KIT1 G-quadruplex DNA (unknown origin) over fluorescently-labeled c-MYC G-quadruplex DNA (unknown origin)
# [14] = Binding affinity to fluorescently-labeled c-KIT1 G-quadruplex DNA (unknown origin) assessed as change in melting temperature at 2 uM by FRET assay
# HepG2 [15] = experiment: Induction of apoptosis in human HepG2 cells assessed as early apoptotic cells level at 2.5 uM after 24 hrs by annexin V/propidium iodide double staining based flow cytometry; format: functional
# [16] = Binding affinity to fluorescently-labeled c-MYC G-quadruplex DNA (unknown origin) by thiazole-ornage dye based fluorescence intercalator displacement assay
# HepG2 [17] = experiment: Induction of apoptosis in human HepG2 cells assessed as early apoptotic cells level at 10 uM after 24 hrs by annexin V/propidium iodide double staining based flow cytometry; format: functional
# HepG2 [18] = experiment: Induction of apoptosis in human HepG2 cells assessed as necrotic cells level at 2.5 uM after 24 hrs by annexin V/propidium iodide double staining based flow cytometry; format: functional
# HepG2 [19] = experiment: Cytotoxicity against human HepG2 cells after 24 hrs by MTT assay; details: HepG2, 24 h
# [20] = Binding affinity to fluorescently-labeled c-KIT1 G-quadruplex DNA (unknown origin) assessed as change in melting temperature by FRET assay
# [21] = Selectivity for fluorescently-labeled c-KIT1 G-quadruplex DNA (unknown origin) over fluorescently-labeled c-KIT2 G-quadruplex DNA (unknown origin)
# HepG2 [22] = experiment: Cell cycle arrest in human HepG2 cells assessed as accumulation at G0/G1 phase at 10 uM after 12 hrs by propidium iodide staining based flow cytometry (reference value: […]); format: functional
# HepG2 [23] = experiment: Cell cycle arrest in human HepG2 cells assessed as accumulation at S phase at 10 uM after 12 hrs by propidium iodide staining based flow cytometry (reference value: 19.10%); format: functional
# [24] = Binding affinity to fluorescently-labeled duplex DNA (unknown origin) by thiazole-ornage dye based fluorescence intercalator displacement assay
# [25] = Binding affinity to fluorescently-labeled c-KIT1 G-quadruplex DNA (unknown origin) assessed as change in melting temperature at 2 uM in presence of 5 uM h-TELO G-quadruplex DNA by FRET assay
# HepG2 [26] = experiment: Cell cycle arrest in human HepG2 cells assessed as accumulation at subG0 phase at 2.5 uM after 12 hrs by propidium iodide staining based flow cytometry (reference value: 1.8%); format: functional
# HepG2 [27] = experiment: Induction of apoptosis in human HepG2 cells assessed as late apoptotic cells level at 10 uM after 24 hrs by annexin V/propidium iodide double staining based flow cytometry; format: functional
# HepG2 [28] = experiment: Cell cycle arrest in human HepG2 cells assessed as accumulation at subG0 phase at 5 uM after 12 hrs by propidium iodide staining based flow cytometry (reference value: 1.8%); format: functional
# HepG2 [29] = experiment: Cell cycle arrest in human HepG2 cells assessed as accumulation at G2/M phase at 2.5 uM after 12 hrs by propidium iodide staining based flow cytometry (reference value: 25.2%); format: functional
# [30] = Binding affinity to fluorescently-labeled h-TELO G-quadruplex DNA (unknown origin) by thiazole-ornage dye based fluorescence intercalator displacement assay
# HepG2 [31] = experiment: Cell cycle arrest in human HepG2 cells assessed as accumulation at S phase at 5 uM after 12 hrs by propidium iodide staining based flow cytometry (reference value: 19.5%); format: functional
# HepG2 [32] = experiment: Cell cycle arrest in human HepG2 cells assessed as accumulation at G0/G1 phase at 2.5 uM after 12 hrs by propidium iodide staining based flow cytometry (reference value: 53.4%); format: functional
# HepG2 [33] = experiment: Induction of apoptosis in human HepG2 cells assessed as necrotic cells level at 5 uM after 24 hrs by annexin V/propidium iodide double staining based flow cytometry; format: functional
# HepG2 [34] = experiment: Cell cycle arrest in human HepG2 cells assessed as accumulation at G0/G1 phase at 5 uM after 12 hrs by propidium iodide staining based flow cytometry (reference value: 53.4%); format: functional
# [35] = Binding affinity to fluorescently-labeled c-KIT1 G-quadruplex DNA (unknown origin) by thiazole-ornage dye based fluorescence intercalator displacement assay
# HepG2 [36] = experiment: Cell cycle arrest in human HepG2 cells assessed as accumulation at S phase at 2.5 uM after 12 hrs by propidium iodide staining based flow cytometry (reference value: 19.5%); format: functional
structure (smiles),measurement,setting,value
O=C(NCc1cn(-c2ccc(NC(=O)[C@@H]3CCCN3)cc2)nn1)c1cccc(C(=O)NCc2cn(-c3ccc(NC(=O)[C@@H]4CCCN4)cc3)nn2)n1,Activity,HepG2 [1],0.2%
same,Activity,HepG2 [2],24.4%
same,Selectivity ratio,[3],15
same,Activity,HepG2 [4],18.4%
same,Activity,HepG2 [5],85.8%
same,Activity,[6],inactive
same,Activity,HepG2 [7],7.4%
same,Activity,HepG2 [8],3.9%
same,Activity,[9],inactive
same,Activity,HepG2 [10],2.6%
same,DC50,[11],9.5 µM
same,Kd,[11],22.7 µM
same,Activity,[12],inactive
same,Selectivity ratio,[13],5
same,deltaTm,[14],30.6 K
same,Activity,HepG2 [15],0.6%
same,DC50,[16],11.3 µM
same,Kd,[16],3.8 µM
same,Activity,HepG2 [17],7.3%
same,Activity,HepG2 [18],29.3%
same,IC50,HepG2 [19],7.42 µM
same,Activity,[20],Dose-dependent effect
same,Selectivity ratio,[21],30
same,Activity,HepG2 [22],65.8%
same,Activity,HepG2 [23],8.2%
same,DC50,[24],> 25 µM
same,Activity,[25],inactive
same,Activity,HepG2 [26],3.3%
same,Activity,HepG2 [27],6.7%
same,Activity,HepG2 [28],6.1%
same,Activity,HepG2 [29],26.7%
same,DC50,[30],7.3 µM
same,Kd,[30],11.6 µM
same,Activity,HepG2 [31],14%
same,Activity,HepG2 [32],56.2%
same,Activity,HepG2 [33],38.6%
same,Activity,HepG2 [34],55.5%
same,DC50,[35],0.47 µM
same,Kd,[35],0.74 µM
same,Activity,HepG2 [36],13.8%
